This is an account of results in US6534524B1, “Indazole compounds and pharmaceutical compositions for inhibiting protein kinases, and methods for their use” (Agouron Pharmaceuticals, Inc., priority 1999, dated 2003).

One series addresses T1, LCK tyrosine kinase (Homo sapiens, UniProt P06239, C224D/P223M).
T1 construct: starting from amino acid residue 223 to the end of the protein at residue 509; made in house; host or cells: insect cells
As to the kind of experiment: LCK spectrophotometric assay. The series is classed as biochemical. As to conditions: Table 1; for pKi: read-out: Lck-P Ki; for inhibition at 1 µM: compound concentration 1 μM, read-out: Lck-P % inhibition. Here is the method: The production of ADP from ATP that accompanies phosphoryl transfer was coupled to oxidation of NADH using phosphoenolpyruvate (PEP) and a system having pyruvate kinase (PK) and lactic dehydrogenase (LDH). The oxidation of NADH was monitored by following the decrease of absorbance at 340 nm (e340=6.22 cm^−1 mM^−1) using a Beckman DU 650 spectrophotometer. […] Ki values were determined by measuring enzyme activity in the presence of varying concentrations of test compounds. The data were analyzed using Enzyme Kinetic and Kaleidagraph software.
The spectrophotometric assay was carried out as described above for VEGF-R2, except for the following changes in concentration: LCK=60 nM, MgCl2=0 mM, poly(E4Y1)=20 mM.

Another series has as its target human FGF-R1 (Homo sapiens, UniProt P11362, C488A/C584S/L457V). Nature of the series: FGF-R spectrophotometric assay. Conditions: for inhibition at 1 µM: read-out: FGF-P % inhibition, Table 1, compound concentration 1 μM.
A short description of series [1]: Determination of inhibitor concentration in mouse plasma after intraperitoneal and oral dosing. It counts as in vivo. Conditions: for concentration at 7 h: female. The procedure, abridged:
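Plasma levels quantified by HPLC or LC-MS using a standard curve prepared in mouse plasma, following ethyl acetate extraction with internal standard and sodium hydroxide. Sampling at 0.5, 1, 4 h (ocular bleed) and 7 h (cardiac puncture) after oral or intraperitoneal dosing.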

Series [2] is described as follows: Human liver microsome (HLM) assay. It counts as in vitro ADME. Conditions: human liver microsomes, 5 μM test compound. The method in brief:
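LC-MS quantified test compound remaining after 0 and 2 h incubation with human liver microsomes. Triplicate samples, clarified by 10 min centrifugation at 14000 g.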

Series [3] concerns the target unphosphorylated VEGF-R2Δ50 (FLVK) (Homo sapiens, UniProt P35968, DEL940-989/E990V). As to the kind of experiment: VEGF-R2 coupled spectrophotometric assay, unphosphorylated VEGF-R2Δ50 (FLVK). As to conditions: for pKi: FLVK Ki, Table 1.
Another series deals with CDK2/Cyclin A (Homo sapiens, UniProt P24941). Nature of the series: CDK2/Cyclin A assay ([32P]ATP, Rb fragment). As to conditions: Table 3. The series is classed as biochemical.
In a further series the target is CDK4/Cyclin D3 complex (Homo sapiens, UniProt P11802). As to the kind of experiment: CDK4/Cyclin D assay ([32P]ATP, Rb fragment).
The target in a further series is CDK1 (Homo sapiens, UniProt P06493). Nature of the series: CDK1 inhibition. It counts as biochemical. As to conditions: Table 3.
For another series, the target named is T2, human CHK1 (FL-CHK1) (Homo sapiens, UniProt O14757).
T2 construct: C-terminally His-tagged full-length human CHK1 (FL-CHK1); made in house; host or cells: baculovirus/insect cell system
T2 sequence (O14757 1-476): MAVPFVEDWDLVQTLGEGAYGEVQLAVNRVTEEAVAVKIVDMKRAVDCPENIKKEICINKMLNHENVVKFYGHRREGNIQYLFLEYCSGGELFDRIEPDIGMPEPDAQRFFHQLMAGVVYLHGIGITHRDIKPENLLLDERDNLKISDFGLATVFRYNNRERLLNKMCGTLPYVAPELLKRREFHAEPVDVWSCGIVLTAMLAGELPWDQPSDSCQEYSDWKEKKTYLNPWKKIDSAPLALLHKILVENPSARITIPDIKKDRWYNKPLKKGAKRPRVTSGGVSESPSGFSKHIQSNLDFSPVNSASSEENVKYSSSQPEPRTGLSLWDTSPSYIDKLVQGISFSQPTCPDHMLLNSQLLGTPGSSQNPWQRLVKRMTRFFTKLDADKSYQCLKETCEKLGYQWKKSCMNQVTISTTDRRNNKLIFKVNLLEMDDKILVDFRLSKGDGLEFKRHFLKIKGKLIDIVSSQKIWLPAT
Nature of the series: CHK1 assay (coupled spectrophotometric, Syntide-2). It counts as biochemical. Conditions: read-out: CHK-1 Ki. The method in brief: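 Full-length C-terminally His-tagged human CHK1 expressed in baculovirus/insect cells, used at 10 nM with Syntide-2 substrate. ADP formation coupled via PK/LDH to NADH oxidation, followed as absorbance decrease at 340 nm. Ki from initial rates at varying compound concentrations.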

The test system of series [4] is human umbilical vein endothelial cells (HUVEC). As to the kind of experiment: HUVEC proliferation assay (VEGF-stimulated, MTT). As to conditions: Homo sapiens, HUVEC. It counts as cell-based.
Series [5] has as its target phosphorylated VEGF-R2Δ50 (FLVK-P) (Homo sapiens, UniProt P35968, DEL940-989/E990V). As to the kind of experiment: VEGF-R2 coupled spectrophotometric assay, phosphorylated VEGF-R2Δ50 (FLVK-P).
[6] abbreviates: IP, 25 mg/kg, vehicle PEG400:H2O pH 2.3 60:40.
Where [7] appears, read: PO, 50 mg/kg, vehicle PEG400:H2O pH 2.3 60:40.
Where [8] appears, read: IP, 25 mg/kg, vehicle PEG400:H2O pH 2.3 60:40, read-out: Cmin (7 hr conc.).
[9] abbreviates: PO, 50 mg/kg, vehicle PEG400:H2O pH 2.3 60:40, read-out: Cmin (7 hr conc.).
The mark [10] stands for this setting: + albumin, read-out: HUVEC + albumin IC50.
The mark [11] stands for this setting: PO, 25 mg/kg, vehicle PEG400:H2O pH 2.3 30:70.
[12] abbreviates: PO, 25 mg/kg, vehicle PEG400:H2O pH 2.3 30:70, read-out: Cmin (7 hr conc.).

pIC50, pKi: −log10 of the molar value. Like-named read-outs stand apart in the source and are kept apart here.

Sequence of human FGF-R1 (P11362 456-766 L457V/C488A/C584S): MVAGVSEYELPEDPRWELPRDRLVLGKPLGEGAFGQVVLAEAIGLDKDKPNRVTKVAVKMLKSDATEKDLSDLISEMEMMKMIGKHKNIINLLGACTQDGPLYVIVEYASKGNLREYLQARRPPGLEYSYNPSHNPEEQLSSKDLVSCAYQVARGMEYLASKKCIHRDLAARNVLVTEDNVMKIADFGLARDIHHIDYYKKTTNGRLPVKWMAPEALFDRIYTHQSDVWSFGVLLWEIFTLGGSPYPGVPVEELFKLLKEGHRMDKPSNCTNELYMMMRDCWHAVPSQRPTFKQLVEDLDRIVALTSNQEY
T1 sequence (P06239 223-509 P223M/C224D): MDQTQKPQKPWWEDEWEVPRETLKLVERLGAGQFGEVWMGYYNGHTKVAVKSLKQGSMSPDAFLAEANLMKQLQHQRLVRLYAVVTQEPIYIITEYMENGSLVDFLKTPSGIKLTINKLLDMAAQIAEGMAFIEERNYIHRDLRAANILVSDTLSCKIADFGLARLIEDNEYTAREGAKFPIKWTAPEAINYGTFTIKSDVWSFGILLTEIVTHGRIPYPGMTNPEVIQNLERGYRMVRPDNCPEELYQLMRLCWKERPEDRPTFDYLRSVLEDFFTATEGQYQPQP
Sequence of unphosphorylated VEGF-R2Δ50 (FLVK) (P35968 with tags, fused parts or gaps DEL940-989/E990V limits assumed): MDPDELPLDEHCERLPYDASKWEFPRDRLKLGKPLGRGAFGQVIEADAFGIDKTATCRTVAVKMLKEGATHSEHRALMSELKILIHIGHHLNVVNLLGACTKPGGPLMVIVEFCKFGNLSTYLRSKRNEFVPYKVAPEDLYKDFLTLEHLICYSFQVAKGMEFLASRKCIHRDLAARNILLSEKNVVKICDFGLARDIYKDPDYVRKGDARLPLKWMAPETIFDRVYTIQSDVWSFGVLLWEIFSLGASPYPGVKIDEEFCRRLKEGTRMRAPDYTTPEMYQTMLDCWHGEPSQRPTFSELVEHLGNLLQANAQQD
Sequence of CDK1 (P06493 whole entry, species assumed): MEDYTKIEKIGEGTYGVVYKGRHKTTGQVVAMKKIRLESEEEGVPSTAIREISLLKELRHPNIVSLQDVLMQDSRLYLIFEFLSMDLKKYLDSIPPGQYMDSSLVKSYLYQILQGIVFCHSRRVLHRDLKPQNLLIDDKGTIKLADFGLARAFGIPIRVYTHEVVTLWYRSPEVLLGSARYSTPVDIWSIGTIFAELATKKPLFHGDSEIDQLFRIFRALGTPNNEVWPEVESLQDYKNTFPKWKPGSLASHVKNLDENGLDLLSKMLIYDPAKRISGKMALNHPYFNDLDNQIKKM
Sequence of CDK1 (P14635 whole entry partner, species assumed): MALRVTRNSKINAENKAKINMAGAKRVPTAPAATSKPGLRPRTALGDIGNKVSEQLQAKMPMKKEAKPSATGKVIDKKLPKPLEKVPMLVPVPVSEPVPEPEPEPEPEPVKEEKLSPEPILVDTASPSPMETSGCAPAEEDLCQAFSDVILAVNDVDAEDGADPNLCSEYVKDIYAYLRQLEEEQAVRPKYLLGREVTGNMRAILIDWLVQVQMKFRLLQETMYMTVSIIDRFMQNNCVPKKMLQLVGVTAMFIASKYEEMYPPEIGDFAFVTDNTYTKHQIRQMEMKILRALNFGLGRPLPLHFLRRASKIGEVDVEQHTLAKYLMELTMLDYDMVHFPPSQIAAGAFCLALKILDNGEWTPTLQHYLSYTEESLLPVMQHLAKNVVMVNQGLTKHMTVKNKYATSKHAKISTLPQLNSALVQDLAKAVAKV
Sequence of CDK4/Cyclin D3 complex (P11802 whole entry, the tested form may be a part): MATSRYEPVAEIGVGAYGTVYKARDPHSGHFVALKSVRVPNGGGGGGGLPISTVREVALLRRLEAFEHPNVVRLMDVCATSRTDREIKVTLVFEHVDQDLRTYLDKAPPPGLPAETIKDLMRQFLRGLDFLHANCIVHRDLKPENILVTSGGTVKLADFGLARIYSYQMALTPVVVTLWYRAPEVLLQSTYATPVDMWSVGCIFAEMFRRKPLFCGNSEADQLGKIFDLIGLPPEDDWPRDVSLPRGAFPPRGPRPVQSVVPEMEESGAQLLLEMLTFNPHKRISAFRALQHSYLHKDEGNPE
Sequence of CDK4/Cyclin D3 complex (P30281 whole entry partner, the tested form may be a part): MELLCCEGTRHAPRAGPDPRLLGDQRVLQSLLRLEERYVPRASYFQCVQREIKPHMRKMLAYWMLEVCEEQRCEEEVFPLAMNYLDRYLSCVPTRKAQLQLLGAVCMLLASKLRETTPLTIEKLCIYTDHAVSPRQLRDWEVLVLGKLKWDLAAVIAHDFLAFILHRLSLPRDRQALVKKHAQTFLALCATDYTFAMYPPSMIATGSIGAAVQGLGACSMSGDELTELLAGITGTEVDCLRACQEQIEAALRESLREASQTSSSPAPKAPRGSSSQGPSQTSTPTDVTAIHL
Sequence of phosphorylated VEGF-R2Δ50 (FLVK-P) (P35968 with tags, fused parts or gaps DEL940-989/E990V limits assumed): as the sequence (P35968 with tags, fused parts or gaps DEL940-989/E990V limits assumed) above

Regarding `O=C(Nc1cccc(C(=O)c2ccc3c(/C=C/c4ccccn4)n[nH]c3c2)c1)c1ccccc1` [Example 42(a), 6-(3-Benzamidobenzoyl)-3-E-[2-(pyridin-2-yl)ethenyl]-1H-indazole], the negative-log Ki (pKi) on LCK tyrosine kinase is 7.28; on human FGF-R1, 7.19; in series [3], 10.34. Further, the AUClast in series [1] (setting [6]) turned out to be 19899 ng·h/mL; in series [1] (setting [7]), 8384 ng·h/mL. Moreover, the results for the “plasma half-life (T1/2)” value in [1] (setting [6]) and in series [1] (setting [7]) were 5.0 h and 2.0 h, respectively. Also, the concentration at 7 h in series [1] (setting [8]) was 1640 ng/mL; in series [1] (setting [9]) it was 341 ng/mL. For the same molecule, the “% remain (HLM, 2 h)” value in series [2] is given as 92%.
Take `C(=C\c1n[nH]c2cc(-c3ccncc3)ccc12)/c1ccc2c(c1)OCO2` [Example 29(r), 6-Pyrid-4-yl-3-E-[2-(3,4-methylenedioxyphenyl)ethenyl]-1H-indazole]: the negative-log Ki (pKi) on CDK2/Cyclin A was 5.89; on CDK4/Cyclin D3 complex, 5.96; at CDK1, 7.18; at human CHK1 (FL-CHK1) (Table 3), 7.14.
Turning to `Cc1cccc(/C=C/c2n[nH]c3cc(-c4ccncc4)ccc23)c1` [Example 29(b), 6-Pyrid-4-yl-3-E-[2-(3-methylphenyl)ethenyl]-1H-indazole], the negative-log Ki (pKi) is 5.52 at CDK2/Cyclin A, 5.41 at CDK4/Cyclin D3 complex and 6.05 on CDK1.
Regarding `C(=C\c1n[nH]c2cc(-c3ccnc4[nH]ncc34)ccc12)/c1ccccc1` [Example 52(a), 6-(7-Azaindazol-4-yl)-3-E-styryl-1H-indazole], the inhibition at 1 µM against CDK1 (compound concentration 1 μM) came out at 39%; in series [3] (read-out: FLVK % inhibition) it was 60%.
Regarding `O=C(c1cccc(NC(=O)c2ccccn2)c1)c1ccc2c(/C=C/c3ccccn3)n[nH]c2c1` [Example 41(aa), 6-[3-(Pyridin-2-ylcarboxamido)benzoyl]-3-E-[2-(pyridin-2-yl)ethenyl]-1H-indazole], the inhibition at 1 µM at LCK tyrosine kinase worked out at 49%; at human FGF-R1 it was 37%. For the same molecule, the AUClast in [1] (setting [6]) was 6659 ng·h/mL; in [1] (setting [7]), 289 ng·h/mL. The “plasma half-life (T1/2)” value stood at 2.1 h in series [1] (setting [6]) and 0.9 h in series [1] (setting [7]). For the same molecule, the figures for the concentration at 7 h in [1] (setting [8]) and in series [1] (setting [9]) were 124 ng/mL and 5 ng/mL, respectively. Further, the pKi in series [3] was 9.96. In addition, the pIC50 was 8.28 in series [4] (setting [10]) and 9.00 in series [4] (read-out: HUVEC IC50).
Turning to `O=C(c1cccc(NC(=O)c2ccno2)c1)c1ccc2c(/C=C/c3ccccc3)n[nH]c2c1` [Example 19(l)], the inhibition at 1 µM on LCK tyrosine kinase was 36%; on human FGF-R1 it was 88%. The negative-log Ki (pKi) in series [5] is 8.33; in series [3], 9.14. The pIC50 in series [4] (setting [10]) was 7.00.
As to `C(=N\n1cccc1)/c1n[nH]c2cc(-c3ccncc3)ccc12` [Example 51, 6-Pyrid-4-yl-3-E-(N-(pyrrol-1-yl)iminomethyl)-1H-indazole], the values for the inhibition at 1 µM on CDK2/Cyclin A (compound concentration 1 μM) and at CDK4/Cyclin D3 complex (read-out: CDK4 % inhibition) were 84% and 79%, respectively. The pKi on CDK1 is 6.84; at human CHK1 (FL-CHK1) (Table 3), 7.06.
On to `Fc1cccc(/C=C/c2n[nH]c3cc(-c4ccncc4)ccc23)c1` [Example 29(g), 6-Pyrid-4-yl-3-E-[2-(3-fluorophenyl)ethenyl]-1H-indazole], for which the pKi was 5.85 on CDK2/Cyclin A, 5.96 at CDK4/Cyclin D3 complex, 6.41 at CDK1 and 7.17 on human CHK1 (FL-CHK1) (Table 3).
Consider `COc1cccc(/C=C/c2n[nH]c3cc(-c4ccncc4)ccc23)c1` [Example 29(e), 6-Pyrid-4-yl-3-E-[2-(3-methoxyphenyl)ethenyl]-1H-indazole], for which the negative-log Ki (pKi) at CDK2/Cyclin A is 5.85; on CDK4/Cyclin D3 complex, 5.70; at CDK1, 6.23; on human CHK1 (FL-CHK1) (Table 3), 7.13.
`O=C(Nc1ccc(O)cc1)c1ccc2c(-c3nc4ccccc4[nH]3)n[nH]c2c1` [Example 53(a), 3-(1H-Benzoidazol-2-yl)-N-(4-hydroxyphenyl)-1H-indazole-6-carboxamide]: the inhibition at 5 µM on CDK2/Cyclin A (@ 5 μM) turned out to be 13%; on CDK4/Cyclin D3 complex (read-out: CDK4 % inhibition) it was 28%. Also, the pKi on CDK1 is 4.62; on human CHK1 (FL-CHK1) (Table 3), 6.52.
Consider `Oc1cccc(Oc2ccc3c(/C=C/c4ccccc4)n[nH]c3c2)c1` [Example 9(a), 3-(E-styryl)-6-[3-hydroxyphenoxy]-1H-indazole], for which the negative-log Ki (pKi) on LCK tyrosine kinase is 6.79; on CDK4/Cyclin D3 complex, 5.77; in series [5], 7.80; in series [3], 8.62; on human CHK1 (FL-CHK1) (Table 1) it was 6.40.
For the molecule `C(=C\c1n[nH]c2cc(-c3ccncc3)ccc12)/c1ccccc1` [Example 27(f)], the pKi on CDK2/Cyclin A is 5.48; on CDK4/Cyclin D3 complex, 6.11; at CDK1, 6.65; at human CHK1 (FL-CHK1) (Table 3), 6.46.
For the molecule `Cc1cnccc1C(=O)Nc1cccc(C(=O)c2ccc3c(/C=C/c4ccccn4)n[nH]c3c2)c1` [Example 41(j), 6-[3-((3-Methylpyridin-4-yl)carboxamido)benzoyl]-3-E-[2-(pyridin-2-yl)ethenyl]-1H-indazole], the inhibition at 1 µM was found to be 16% at LCK tyrosine kinase and 41% at human FGF-R1. The same molecule registered an AUClast in [1] (setting [11]) of 1476 ng·h/mL. The “plasma half-life (T1/2)” value in series [1] (setting [11]) was 1.3 h. Besides, the concentration at 7 h in [1] (setting [12]) amounted to 17 ng/mL. In series [3] (read-out: FLVK % inhibition), the inhibition at 0.05 µM was found to be 98%. In addition, the pIC50 in [4] (setting [10]) is 8.11.
With `CCCn1nc(C)cc1C(=O)Nc1cc(C(=O)c2ccc3c(/C=C/c4ccccn4)n[nH]c3c2)ccc1C` [Example 41(ii), 6-[3-((1-n-Propyl-3-methyl-1H-pyrazol-5-yl)carboxamido)-4-methylbenzoyl]-3-E-[2-(pyridin-2-yl)ethenyl]-1H-indazole], the inhibition at 1 µM on LCK tyrosine kinase was 18%. The molecule further gave a pKi at human FGF-R1 of 7.96. In series [1] (setting [11]), the AUClast was 7094 ng·h/mL, the maximum concentration (Cmax) worked out at 1826 ng/mL and the “plasma half-life (T1/2)” value came out at 2.3 h. In [1] (setting [12]), the concentration at 7 h came out at 346 ng/mL. Besides, the inhibition at 0.05 µM in series [3] (read-out: FLVK % inhibition) came to 57%. Besides, in series [4] (setting [10]), the pIC50 is 7.89.
On to `Fc1ccccc1/C=C/c1n[nH]c2cc(-c3ccncc3)ccc12` [Example 29(h), 6-Pyrid-4-yl-3-E-[2-(2-fluorophenyl)ethenyl]-1H-indazole], for which the pKi on CDK2/Cyclin A was 5.52; at CDK4/Cyclin D3 complex, 5.66; at CDK1 it was 5.89; at human CHK1 (FL-CHK1) (Table 3), 6.85.
